According to patent US11191746B2, “Composition for inhibiting a growth of cancer stem cells comprising ciclesonide” (JEJU NATIONAL UNIVERSITY INDUSTRY-ACADEMIC COOPERATION …, priority 2016, dated 2021):

What was measured:
Assay type in all cases: cell-based, human
A549 cells [1] = experiment: Clonogenic assay; conditions: A549, 10 μM
Procedure: (§1) MDA-MB-231 cells or A549 cells were inoculated at low density in a 6-well plate, and, in a DMEM medium, the MDA-MB-231 cells were treated with different concentrations of ciclesonide, or the A549 cells were treated with 10 μM ciclesonide. After 24 hours, the medium was replaced with a new medium and cultured for […] to allow the cells to grow. The grown colonies were counted.

MDA-MB-231 cells = experiment: Clonogenic assay
Procedure: as §1

A549 cells [2] = experiment: ALDEFLUOR analysis, lung cancer cells; conditions: 24 hours
Procedure: An ALDEFLUOR analysis system provides a novel approach to the identification, evaluation, and isolation of CSCs based on the activity of aldehyde dehydrogenase (ALDH). BODIPY-aminoacetaldehyde as an active reagent was added to breast cancer cells or lung cancer cells, and converted into fluorescent BODIPY-aminoacetate by ALDH. Diethylaminobenzaldehyde (DEAB), which is an ALDH inhibitor, was used as a negative control. MCF-7 cells or A549 cells were treated with 10 μM or 20 μM ciclesonide for 24 hours, and the proportion of ALDH-positive cells was analyzed by ALDEFLUOR assay. ALDH-positive and negative cells were sorted by C6 Accuri flow cytometry (BD Bioscience).

mammospheres = experiment: Mammosphere proliferation (cell counting); conditions: mammospheres treated 2 days, single cells replated and counted
Procedure: FIG. 6B illustrates the effect of ciclesonide on mammosphere growth wherein ciclesonide inhibits the growth of mammospheres, mammospheres having been treated with ciclesonide or DMSO for 2 days were separated into single cells and plated in 6 cm dishes at the same density. 24 hours after plating, the cells were counted, on days 2 and 3, the cells were counted three times, and plotted as mean values, and the data was expressed as the mean±SD for the three independent experimental results. *p<0.05 vs. DMSO-treated control.

Sox2 = experiment: Real-time PCR of self-renewing genes in mammospheres; conditions: RT-PCR, β-actin internal control
Procedure: (§2) The levels of transcripts were measured with a One Step SYBR PrimeScript RT-PCR kit (Takara, Tokyo, Japan) using SYBR green as a double-stranded DNA-specific dye in accordance with the manufacturer's protocol. One-step RT-PCR was performed on 1 μg of total RNA, 10 μl of 2× One Step SYBR RT-PCR Buffer IV, and 1 μl of PrimeScript 1 step Enzyme Mix II using PCR forward and reverse primers of each of CD44, NANOG, OCT4, C-myc, Sox2, Snail, and β-actin at a final volume of 20 μl per reaction.
(§3) The relative expression level of mRNA of the target gene was calculated using a comparative CT method. At least three independent PCR procedures were performed in accordance with statistical analysis. PCR products were normalized with the […] gene as an internal control.

CD44 = experiment: as above; conditions: RT-PCR, β-actin internal control
Procedure: as §2, §3

Oct4 = experiment: as above; conditions: RT-PCR, β-actin internal control
Procedure: as §2, §3

C-myc = experiment: as above; conditions: RT-PCR, β-actin internal control
Procedure: as §2, §3

Nanog = experiment: as above; conditions: RT-PCR, β-actin internal control
Procedure: as §2, §3

MCF-7 cells = experiment: Breast cancer cell proliferation assay (MTS); conditions: MCF-7, 48 hours after treatment
Procedure: The proliferation rates of MCF-7 cells and MDA-MB-231 cells were measured using a CellTiter 96® aqueous one solution cell proliferation kit. The MCF-7 cells or the MDA-MB-231 cells were cultured in a 96-well plate for 48 hours in the presence of ciclesonide at concentrations of 0 μM, 5 μM, 10 μM, 20 μM, 40 μM, and 80 μM. In accordance with the manufacturer's protocol, absorbance at 490 nm was determined using a 96-well plate reader (Dynex Revelation, Dynex Ltd., Billingshurst, UK). Respective data was determined by measuring three sets.

## CC(C)C(=O)OCC(=O)[C@@]12O[C@H](C3CCCCC3)O[C@@H]1C[C@H]1[C@@H]3CCC4=CC(=O)C=C[C@]4(C)[C@H]3[C@@H](O)C[C@@]12C [ciclesonide]
A549 cells [1]
  colony formation: inhibited
MDA-MB-231 cells
  colony formation: inhibited
A549 cells [2]
  proportion of ALDH-positive lung cancer cells: reduced
mammospheres
  proliferation of mammospheres: significantly reduced
Sox2
  expression of Sox2: reduced
CD44
  expression of CD44: reduced
Oct4
  expression of Oct4: reduced
C-myc
  expression of C-myc: reduced
Nanog
  expression of Nanog: reduced
MCF-7 cells
  concentration at which growth of the cell line was inhibited in a concentration-dependent manner: ≥ 10 µM
